From ChEMBL document CHEMBL4831513, “Discovery of quinazoline derivatives as a novel class of potent and in vivo efficacious LSD1 inhibitors by drug repurposing” (Eur J Med Chem, 2021)

Target: Lysine-specific histone demethylase 1A (Homo sapiens, UniProt O60341)
Description: Inhibition of recombinant full length LSD1 (unknown origin) transfected in Escherichia coli BL21 (DE) using H3K4me2 as substrate by flourescence based analysis

| Compound | IC50 |
| --- | --- |
| C#Cc1cccc(Nc2ncnc3ccccc23)c1 | > 50 µM |
| C#Cc1cccc(Nc2ncnc3cc(OC)c(OC)cc23)c1 | > 50 µM |
| COCCOc1cc2ncnc(Sc3nnnn3C)c2cc1OCCOC | > 50 µM |
| C#Cc1cccc(Nc2ncnc3ccc(Br)cc23)c1 | > 50 µM |
| COCCOc1cc2ncnc(Nc3ccc(Br)cc3)c2cc1OCCOC | > 50 µM |
| C#Cc1cccc(Nc2nc(-c3ccccc3)nc3ccccc23)c1 | > 50 µM |
| COCCOc1cc2ncnc(Nc3ccccc3)c2cc1OCCOC | > 50 µM |
| COCCOc1cc2ncnc(Sc3ccccn3)c2cc1OCCOC | > 50 µM |
| C#Cc1cccc(Nc2ncnc3cc(OCc4ccccc4)c(OC)cc23)c1 | > 50 µM |
| COCCOc1cc2ncnc(Sc3nnnn3-c3ccccc3)c2cc1OCCOC | > 50 µM |
